Several values for one entry are separate records, joined by “and”; a condition that tells them apart may be missing. Identical values can stand only once.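 The compound was tested at five concentrations on cells cultured in 96-well plates, with a 48-hour exposure period. GI50 = concentration required for 50% inhibition of growth. TGI denotes the concentration required for complete inhibition of growth.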
Columns and labels:
Assay in all cases: inhibition of tumour cell growth, NCI panel, 48 h
HCT-116 colon = tested on: HCT-116 colon
UACC-62 melanoma = tested on: UACC-62 melanoma
TK-10 renal = tested on: TK-10 renal
U251 CNS = tested on: U251 CNS
HCC-2998 colon = tested on: HCC-2998 colon
HOP-62 NSCLC = tested on: HOP-62 NSCLC
NCI-H23 lung = tested on: NCI-H23 lung
LOX IMVI melanoma = tested on: LOX IMVI melanoma
NCI-H522 lung = tested on: NCI-H522 lung
DU-145 prostate = tested on: DU-145 prostate

Structure (SMILES)	TGI (HCT-116 colon)	TGI (UACC-62 melanoma)	TGI (TK-10 renal)	TGI (U251 CNS)	TGI (HCC-2998 colon)	TGI (HOP-62 NSCLC)	TGI (NCI-H23 lung)	TGI (LOX IMVI melanoma)	TGI (NCI-H522 lung)	GI50 (HCT-116 colon)	GI50 (UACC-62 melanoma)	GI50 (TK-10 renal)	GI50 (U251 CNS)	GI50 (NCI-H522 lung)	GI50 (DU-145 prostate)	TGI (DU-145 prostate)	GI50 (NCI-H23 lung)	GI50 (LOX IMVI melanoma)	GI50 (HOP-62 NSCLC)	GI50 (HCC-2998 colon)
CCOC(=O)[C@@]12C(C)=CC(=O)O[C@]1(C)C1C(=O)NC(=O)C12 (stereo partly drawn)	> 100 µM	> 100 µM	> 100 µM	> 100 µM	> 100 µM	> 100 µM	> 100 µM	> 100 µM	–	–	–	–	–	–	–	–	–	–	–	–
C=CCC12CC(=O)CCC1c1ccc(OC)cc1C2=O (stereo not drawn)	> 100 µM	> 100 µM	> 100 µM	> 100 µM	> 100 µM	> 100 µM	> 100 µM	> 100 µM	> 100 µM	–	–	–	–	–	–	–	–	–	–	–
CC1CCCC(C#N)(NOC2=NCCN2)C1 (stereo not drawn)	> 100 µM	94.8 µM	46.2 µM	78.7 µM	–	–	> 100 µM	25.4 µM	> 100 µM	31.7 µM	26.4 µM	12.9 µM	23.4 µM	29 µM	24.1 µM	> 100 µM	35.3 µM	12.7 µM	–	–
O=c1cc[nH]cc1-c1c[nH]ccc1=O	> 100 µM	> 100 µM	> 100 µM	> 100 µM	> 100 µM	–	> 100 µM	> 100 µM	> 100 µM	–	–	–	–	–	–	–	–	–	–	–
NC1=NC(SCc2ccccc2CCl)c2ncn(Cc3ccccc3CCl)c2N1 (stereo not drawn)	3.06 µM	10.4 µM	11.9 µM	2.82 µM	–	3.16 µM	3.45 µM	2.92 µM	–	1.47 µM	2.54 µM	3.29 µM	1.45 µM	–	1.35 µM	2.7 µM	1.61 µM	1.35 µM	1.53 µM	–
Cc1ccc(N2C(=O)/C(=C/c3ccc(N(CCC#N)CCC#N)cc3)N=C2COc2ccc(Cl)cc2Cl)cc1	> 100 µM	> 100 µM	> 100 µM	> 100 µM	–	> 100 µM	> 100 µM	> 100 µM	> 100 µM	–	–	–	–	–	–	–	–	–	–	–
CCCCCCCC(=O)[O-].CCCCCCCC(=O)[O-].N.N.N.N.[Co+3].[O-][Cl+3]([O-])([O-])[O-]	–	> 100 µM	> 100 µM	–	> 100 µM	–	> 100 µM	–	–	–	> 100 µM	57.1 µM	–	–	–	–	> 100 µM	–	–	> 100 µM
C=C(C(=O)OC)[C@@H]1CC2OC1C(=O)C(C)CCC/C(C)=C/CC[C@@]2(C)O (stereo partly drawn)	26.2 µM	74.9 µM	71.1 µM	> 100 µM	–	41.2 µM	27.9 µM	57.2 µM	48.4 µM	13.4 µM	26.1 µM	20.8 µM	36.7 µM	19.1 µM	15 µM	28.2 µM	14 µM	20.2 µM	20.6 µM	–
N#C/C(=C/N1CCN(C(=O)c2ccco2)C1=S)C(=O)Nc1ccc(Cl)cc1	> 50 µM	> 50 µM	> 50 µM	> 50 µM	–	> 50 µM	33.5 µM	> 50 µM	30.2 µM	15.2 µM	16.9 µM	19.4 µM	17.3 µM	16.7 µM	15.9 µM	> 50 µM	12.3 µM	16.7 µM	25.7 µM	–
CCOC(=O)c1sc2c(C(=O)OCC)n3cc(C)cc(C)c3c2c1O	> 100 µM	> 100 µM	> 100 µM	> 100 µM	> 100 µM	–	> 100 µM	> 100 µM	> 100 µM	–	–	–	–	–	–	–	–	–	–	–
O=S(=O)(/N=S(/Nc1ccccc1)C(F)(F)Cl)c1ccccc1 (stereo not drawn)	> 100 µM	> 100 µM	> 100 µM	> 100 µM	–	> 100 µM	> 100 µM	> 100 µM	–	–	–	–	–	–	–	> 100 µM	–	–	–	–
CC12CCC(=O)C(O1)C1C(=O)c3ccc4c(ccc5ccccc54)c3C(=O)C12 (stereo not drawn)	4.71 µM	2.86 µM	7.89 µM	35.6 µM	–	50.3 µM	8.35 µM	3.57 µM	14.3 µM	3.03 µM	1.46 µM	3.47 µM	18.8 µM	5.52 µM	2.73 µM	6.49 µM	4.15 µM	0.477 µM	26.5 µM	–
CCC[CH2][Sn]([CH2]CCC)([CH2]CCC)/[C](=C/[Si](C)(C)c1ccccc1)c1ccc2c(c1)OCO2	41 µM	–	99.1 µM	40 µM	–	50.6 µM	92.9 µM	66.7 µM	> 100 µM	17.9 µM	–	33.8 µM	18.8 µM	9.71 µM	21.7 µM	48.6 µM	25.6 µM	21.3 µM	23.7 µM	–
O=C1C(Cl)=C(Cl)C(=O)N1c1ccc(Cl)c(Cl)c1Cl	> 100 µM	> 100 µM	> 100 µM	> 100 µM	> 100 µM	> 100 µM	> 100 µM	> 100 µM	28.8 µM	–	–	–	–	–	–	–	–	–	–	–
COc1cc2c(cc1OC)C(C(CBr)CBr)N(C1CCCC1)CC2 (stereo not drawn)	–	> 100 µM	> 100 µM	> 100 µM	> 100 µM	> 100 µM	> 100 µM	> 100 µM	> 100 µM	–	–	–	–	–	–	–	–	–	–	–
CC(C)N(C(=O)C12C3C4C5(C(=O)O)C(C1C35I)C42C(=O)O)C(C)C (stereo not drawn)	> 100 µM	> 100 µM	> 100 µM	> 100 µM	> 100 µM	> 100 µM	> 100 µM	–	> 100 µM	–	–	–	–	–	–	–	–	–	–	–
Cc1ccc(SSCC(O)C(O)CSSc2ccc(C)cc2)cc1 (stereo not drawn)	20.1 µM and 24.5 µM	17.2 µM and 31 µM	35.2 µM and 27.7 µM	10.9 µM and 12 µM	28.3 µM and 28.9 µM	26.6 µM and 9.98 µM	20.9 µM and 24.1 µM	2.78 µM and 4.21 µM	3.38 µM and 3.68 µM	–	4.81 µM and 15.8 µM	–	–	–	–	–	–	–	12.5 µM and 3.81 µM	–
CCCC(O)c1cn(-c2cccc(S(=O)(=O)O)c2)nn1 (stereo not drawn)	> 100 µM	> 100 µM	> 100 µM	> 100 µM	> 100 µM	> 100 µM	> 100 µM	> 100 µM	> 100 µM	–	–	–	–	–	–	–	–	–	–	–
COc1ccc(-c2cc3ccccc3[nH]c2=O)cc1OC	> 100 µM	> 100 µM	> 100 µM	> 100 µM	> 100 µM	> 100 µM	> 100 µM	> 100 µM	> 100 µM	–	–	–	–	–	–	–	–	–	–	–

Source: PubChem BioAssay (NCI)
